Measurements as given in PMC2943923, “Human Integrin α3β1 Regulates TLR2 Recognition of Lipopeptides from Endosomal Compartments” (PLoS ONE, 2010).

Columns and labels:
U937 macrophages [1] = assay: IL-6 secretion (ELISA) of U937 macrophages stimulated with Pam3CSK4; format: cell-based, human; conditions: 100 ng/ml Pam3CSK4, 6 hours; for decrease in Pam3CSK4-induced IL-6 secretion relative to control cells: 100 ng/ml concanamycin A, p = 0.037; for decrease in Pam3CSK4-induced IL-6 secretion relative to control cells / mean secretion of IL-6 by inhibitor-treated cells: 500 µM bafilomycin A1, 1 µM monensin, 5 µM CPZ; for mean secretion of IL-6 by inhibitor-treated cells: inhibitor added 30 minutes before: 100 ng/ml concanamycin A
Description: (§1) The human monocyte cell line U937 (American Type Culture Collection) was maintained in RPMI (Mediatech) with 10% FBS and 1% penicillin-streptomycin. For all experiments, U937 monocytes were differentiated at a concentration of 5×10^5 cells per well in 24-well plates with 100 nM phorbol 12-myristate 13-acetate (Sigma) for 48 hours. All experiments were performed under serum-free conditions, unless otherwise noted.
The TLR2/1 triacylated lipid ligand, Pam3CSK4 (Invivogen), biotinylated Pam3CSK4 (Axxora) or Pam3CSK4-rhodamine (Invivogen) were resuspended in endotoxin-free water. Pam3CSK4 was used at a concentration of 100 ng/ml to stimulate macrophages, and Pam3CSK4-biotin and Pam3CSK4-rhodamine were used at indicated concentrations.
Inhibition of endosomal acidification was achieved using inhibitors of V-ATPase, concanamycin A (100 ng/ml) and bafilomycin A1 (500 µM) (Sigma) or the ionophore monensin (1 µM) (Sigma). Clathrin-mediated endocytosis was inhibited with chlorpromazine (CPZ) (5 µM) (Sigma). Concentrations were chosen based on prior studies, [61]. All inhibitors were added 30 minutes prior to stimulation. For CPZ experiments, the media was replaced at the time of stimulation to remove CPZ. […]
Supernatants were collected 6 hours post stimulation. IL-6 and TNF-α were measured using the DuoSet enzyme linked immunoabsorbent assay (ELISA) kit (R&D systems) following the manufacturer's instructions.

U937 macrophages [2] = assay: IL-6 secretion (ELISA) of U937 macrophages stimulated with B. burgdorferi; format: cell-based, human; conditions: for mean secretion of IL-6 by inhibitor-treated cells: B. burgdorferi MOI 10, 6 hours, serum-free, three experiments
Description: as §1
Clonal isolates of infectious, low passage B. burgdorferi sensu stricto (strain N40, clone D10E9) were cultured in Barbour-Stoenner-Kelley (BSK II) medium at 37°C as described, and used at multiplicity of infection (MOI) 10∶1.
(§2) Inhibition of endosomal acidification was achieved using inhibitors of V-ATPase, concanamycin A (100 ng/ml) and bafilomycin A1 (500 µM) (Sigma) or the ionophore monensin (1 µM) (Sigma). Clathrin-mediated endocytosis was inhibited with chlorpromazine (CPZ) (5 µM) (Sigma). Concentrations were chosen based on prior studies, [61]. All inhibitors were added 30 minutes prior to stimulation. For CPZ experiments, the media was replaced at the time of stimulation to remove CPZ.
For blocking antibody experiments, U937 macrophages were incubated for 2 hours prior to stimulation with 50 µg/ml of control mouse ascites fluid (NS-1 murine myeloma, Sigma-Aldrich) or anti-integrin α3β1 monoclonal antibody (P1B5, Millipore).
(§3) Supernatants were collected 6 hours post stimulation.

U937 macrophages [3] = assay: IL-6 secretion of U937 macrophages stimulated with TNF-α (inhibitor control); format: cell-based, human; conditions: pre-treatment with inhibitor, stimulation with TNF-α; data not shown
Description: as §2, §3

U937 macrophages [4] = assay: TNF-α secretion (ELISA) of U937 macrophages stimulated with Pam3CSK4; format: cell-based, human; conditions: Fig S5A; 100 ng/ml concanamycin A or 1 µM monensin; 100 ng/ml Pam3CSK4, 6 hours, serum-free
Description: as §2, §3

U937 macrophages [5] = assay: IL-6 transcript (qRT-PCR) in Pam3CSK4-stimulated U937 macrophages; format: cell-based, human; conditions: 1 µM monensin; 100 ng/ml Pam3CSK4, 6 hours, serum-free; normalized to β-actin (Fig. S2)
Description: as §2
(§4) Cells were collected at 6 hours post infection unless otherwise indicated. RNA was extracted using TRIzol (Invitrogen) following the manufacturer's instructions. RNA was resuspended in water containing RNaseOut (Invitrogen) and treated with DNaseI using the Turbo DNA-free kit (Ambion). cDNA was synthesized using the ImPromII kit (Promega) following the manufacturer's instructions. Quantification of cDNA was performed by quantitative RT-PCR (iCycler, BioRad) using the iQ SYBR Green Supermix (BioRad). Cycling parameters were 95°C for 15 minutes followed by 40 cycles of 95°C for 30 seconds, 60°C for 30 seconds, and 72°C for 30 seconds. Primers used to measure IL-6, TNF-α, and β-actin were published previously, [62]. Human integrin α3 primers, forward: 5′-[…]-3′, reverse 5′-[…]-3′ were generated by Primer Bank, ID# 6006011a1. […]

U937 macrophages [6] = assay: IL-6 transcript (qRT-PCR) in B. burgdorferi-stimulated U937 macrophages; format: cell-based, human; conditions: 1 µM monensin; B. burgdorferi MOI 10, 6 hours, serum-free (Fig. S4)
Description: as §2, §4

U937 macrophages [7] = assay: IFN-α1 transcript (qRT-PCR) in Pam3CSK4-stimulated U937 macrophages; format: cell-based, human; conditions: 100 ng/ml Pam3CSK4, serum-free; for reduction of IFN-α1 transcript levels: 100 ng/ml concanamycin A or 1 µM monensin, 6 and 16 hours, p = 0.037
Description: as §2
as §4, with “6006011a1. Human integrin αv primers, forward: 5′-[…]-3′, reverse 5′-[…]-3′ were generated by Primer Bank, ID# 4504763a2. Human integrin α5 primers, forward: 5′-[…]-3′, reverse 5′-[…]-3′ were generated by Primer Bank, ID# 4504751a3. Human integrin α6 primers, forward: 5′-TCGGCACAGCAACCTTGAA-3′, reverse 5′-[…]-3′ were generated by Primer Bank, ID# 30046796a2. Human TLR2 primers, forward: 5′-[…]-3′, reverse 5′- […]-3′. Human TLR4 primers, forward: 5′-[…]-3′, reverse 5′-[…]-3′ were generated by Primer Bank, ID# 19924149a1. Human TLR7 primers, forward: 5′-[…]-3′, reverse 5′-[…]-3′. Human TLR9 primers, forward: 5′-GCGACCAGGCTCCCGAAGG-3′, reverse 5′-[…]-3′. Human IFN-α1 primers, forward: 5′-[…]-3′, reverse: 5′-[…]-3′ were generated by Primer Bank, ID# 13128950a1 [63], [64].” for “6006011a1.”

U937 macrophages [8] = assay: IFN-β transcript (qRT-PCR) in Pam3CSK4-stimulated U937 macrophages; format: cell-based, human; conditions: 100 ng/ml Pam3CSK4, serum-free, 6 hrs or 16 hrs post stimulation
Description: as §4, with “6006011a1. Human integrin αv primers, forward: 5′-[…]-3′, reverse 5′-[…]-3′ were generated by Primer Bank, ID# 4504763a2. Human integrin α5 primers, forward: 5′-[…]-3′, reverse 5′-[…]-3′ were generated by Primer Bank, ID# 4504751a3. Human integrin α6 primers, forward: 5′-TCGGCACAGCAACCTTGAA-3′, reverse 5′-[…]-3′ were generated by Primer Bank, ID# 30046796a2. Human TLR2 primers, forward: 5′-[…]-3′, reverse 5′- […]-3′. Human TLR4 primers, forward: 5′-[…]-3′, reverse 5′-[…]-3′ were generated by Primer Bank, ID# 19924149a1. Human TLR7 primers, forward: 5′-[…]-3′, reverse 5′-[…]-3′.” for “6006011a1.”

[9] = tested on: murine bone marrow derived macrophages; assay: IFN-β induction in murine bone marrow derived macrophages; format: cell-based; conditions: data not shown
[10] = Fig 5, serum-free, three experiments
[11] = 100 ng/ml concanamycin A, 500 µM bafilomycin A1, 1 µM monensin
[12] = Homo sapiens, U-937, 6 h, read-out: inhibition of B. burgdorferi induction of IL-6

**Q.** How did the “decrease in Pam3CSK4-induced IL-6 secretion relative to control cells” value (U937 macrophages [1]; serum-free) turn out when CN(C)CCCN1c2ccccc2Sc2ccc(Cl)cc21 [CPZ, chlorpromazine] was run?
**A.** Its value is 49%.

**Q.** What about the “mean secretion of IL-6 by inhibitor-treated cells” value (U937 macrophages [1]; [10]) of the same compound?
**A.** Its value is 340 pg/mL.

**Q.** Which “mean secretion of IL-6 by inhibitor-treated cells” value (U937 macrophages [2]; [11]) does the source give for CC[C@@]1([C@@H]2O[C@@H]([C@H]3O[C@@](O)(CO)[C@H](C)C[C@@H]3C)C[C@@H]2C)CC[C@H]([C@]2(C)CC[C@]3(C[C@H](O)[C@@H](C)[C@@H]([C@@H](C)[C@@H](OC)[C@H](C)C(=O)O)O3)O2)O1 [monensin] here?
**A.** The value was 567 pg/mL.

**Q.** And the inhibition at 1 µM (U937 macrophages [2]; [12])?
**A.** Its inhibition at 1 µM is 40%.

**Q.** And the “change in secretion of IL-6 in response to TNF-α” value (“change in secretion” for short) (U937 macrophages [3])?
**A.** Its value is “decrease in IL-6 secretion”.

**Q.** What about the “mean secretion of TNF-α by inhibitor-treated cells” value (U937 macrophages [4]) of the same compound?
**A.** Its value is 567 pg/mL.

**Q.** What about the “reduction of IL-6 transcript” value (U937 macrophages [5]) of the same compound?
**A.** The value was 32%.

**Q.** And the “decrease in Pam3CSK4-induced IL-6 secretion relative to control cells” value (U937 macrophages [1]; serum-free)?
**A.** The value was 38%.

**Q.** What about the “mean secretion of IL-6 by inhibitor-treated cells” value (U937 macrophages [1]; [10]) of the same compound?
**A.** Its value is 420 pg/mL.

**Q.** What about the “reduction of IL-6 transcript” value (U937 macrophages [6]) of the same compound?
**A.** The value was 51%.

**Q.** What about the “reduction of IFN-α1 transcript levels” value (U937 macrophages [7]) of the same compound?
**A.** The value was 88%.

**Q.** With CO/C1=C\C(C)=C\[C@@H](C)[C@@H](O)[C@@H](C)C/C(C)=C/C=C/[C@H](OC)[C@@H]([C@@H](C)[C@@H](O)[C@H](C)[C@@]2(O)C[C@@H](O)[C@H](C)[C@@H](C(C)C)O2)OC1=O [bafilomycin A1] as the compound, how does the “mean secretion of IL-6 by inhibitor-treated cells” value (U937 macrophages [2]; [11]) read?
**A.** The value was 680 pg/mL.

**Q.** And the inhibition at 500 µM (U937 macrophages [2]; [12])?
**A.** The inhibition at 500 µM was 30%.

**Q.** And the “change in secretion” value (U937 macrophages [3])?
**A.** Its value is “no significant change”.

**Q.** What about the “decrease in Pam3CSK4-induced IL-6 secretion relative to control cells” value (U937 macrophages [1]; serum-free) of the same compound?
**A.** Its value is 37%.

**Q.** What about the “mean secretion of IL-6 by inhibitor-treated cells” value (U937 macrophages [1]; [10]) of the same compound?
**A.** The value was 430 pg/mL.

**Q.** How did the “induction of IFN-β” value (U937 macrophages [8]) turn out when “palmitoyl-3-Cys-Ser-(Lys)4 [Pam3CSK4, synthetic TLR2/1 triacylated lipid ligand, prototypical bacterial lipopeptide (Invivogen)]” was run?
**A.** The value was “did not observe any induction”.

**Q.** What about the “mean secretion of IL-6” value (U937 macrophages [1]; Fig 1A, cells transduced with control shRNA, serum-free, mean of three independent experiments) of the same compound?
**A.** Its value is 350 pg/mL.

**Q.** And the “mean secretion of IL-6” value (U937 macrophages [1]; Fig 2A, in the presence of 1% FBS, three experiments)?
**A.** Its value is 975 pg/mL.

**Q.** What about the “mean secretion of IL-6” value (U937 macrophages [1]; Fig 2A, serum-free, three experiments) of the same compound?
**A.** The value was 1,048 pg/ml.

**Q.** And the “mean secretion of IL-6” value (U937 macrophages [1]; Fig 2B, control shRNA cells, 1% FBS)?
**A.** Its value is 974 pg/mL.

**Q.** And the “mean secretion of IL-6” value (U937 macrophages [1]; Fig 2B, control shRNA cells, serum-free)?
**A.** The value was 1,048 pg/ml.

**Q.** What about the “mean secretion of IL-6” value (U937 macrophages [1]; Fig 5, control cells (no inhibitor), serum-free, three experiments) of the same compound?
**A.** Its value is 670 pg/mL.

**Q.** What about the “induction of IFN-α1 (interferon response)” value (U937 macrophages [7]) of the same compound?
**A.** Its value is “induces an interferon response”.

**Q.** And the “induction of IFN-β” value [9]?
**A.** Its value is “confirm Pam3CSK4-induced IFN-β”.

**Q.** C/C=C/[C@H]1O[C@@](O)([C@@H](C)[C@H](O)[C@H](C)[C@H]2OC(=O)/C(OC)=C/C(C)=C/[C@@H](C)[C@@H](O)[C@@H](CC)[C@@H](O)[C@H](C)C/C(C)=C/C=C/[C@@H]2OC)C[C@@H](O[C@H]2C[C@@H](O)[C@H](OC(N)=O)[C@@H](C)O2)[C@@H]1C [concanamycin A] was tested. Which “mean secretion of IL-6 by inhibitor-treated cells” value (U937 macrophages [2]; [11]) did it give?
**A.** Its value is 437 pg/mL.

**Q.** And the “inhibition of B. burgdorferi induction of IL-6” value (U937 macrophages [2]; 100 ng/ml concanamycin A, 500 µM bafilomycin A1, 1 µM monensin, MOI 10, 6 hours, p = 0.037)?
**A.** The value was 56%.

**Q.** And the “change in secretion” value (U937 macrophages [3])?
**A.** The value was “no significant change”.

**Q.** And the “mean secretion of TNF-α by inhibitor-treated cells” value (U937 macrophages [4])?
**A.** The value was 928 pg/mL.

**Q.** What about the “decrease in Pam3CSK4-induced IL-6 secretion relative to control cells” value (U937 macrophages [1]; serum-free) of the same compound?
**A.** The value was 53%.

**Q.** And the “mean secretion of IL-6 by inhibitor-treated cells” value (U937 macrophages [1]; [10])?
**A.** The value was 320 pg/mL.

**Q.** And the “reduction of IFN-α1 transcript levels” value (U937 macrophages [7])?
**A.** The value was 84%.
